Reference: the NIST ThermoML archive (doi:10.1016/j.tca.2018.04.001)
± gives the expanded uncertainty stated by the source.

Tests used:
[1] = DSC
[2] = Molar enthalpy of transition or fusion; conditions: DSC

CCCCCCCCCCCCCCCCCCCCC [heneicosane]
Triple point temperature ([1]; Crystal 1): 313.65 ± 1 K
Triple point temperature ([1]; Crystal 2): 305.05 ± 1 K
Molar enthalpy of transition or fusion ([2]; Crystal 1): 9.93 ± 1 kcal/mol
Molar enthalpy of transition or fusion ([2]; Crystal 2): 3.42 ± 0.359 kcal/mol
